Assay results published in patent US20140005234A1, “INSECTICIDAL N-SUBSTITUTED SULFILIMINE AND SULFOXIMINE PYRIDINE N-OXIDES” (Dow AgroSciences LLC, priority 2012, published 2014).

System: Green Peach Aphid (GPA)
Assay: Insecticidal testing for Green Peach Aphid (GPA), foliar spray on infested cabbage seedlings
Format: in vivo
Parameters: key to GPA Control @ 200 ppm: A: 80-100; B: More than 0-Less than 80; C: Not Tested; D: No activity noticed in this bioassay
Conditions: 200 ppm test compound sprayed on cabbage seedlings infested with GPA, graded after three days, Abbott-corrected % control, qualitative rating; for pest or weed control at 200 ppm: Myzus persicae, foliar, 72 h
Source text: Insecticidal Testing for Green Peach Aphid (GPA) GPA is the most significant aphid pest of peach trees, causing decreased growth, shriveling of the leaves, and the death of various tissues. It is also hazardous because it acts as a vector for the transport of plant viruses, such as potato virus Y and potato leafroll virus to members of the nightshade/potato family Solanaceae, and various mosaic viruses to many other food crops. GPA attacks such plants as broccoli, burdock, cabbage, carrot, cauliflower, daikon, eggplant, green beans, lettuce, macadamia, papaya, peppers, sweet potatoes, tomatoes, watercress, and zucchini, among other plants. GPA also attacks many ornamental crops such as carnation, chrysanthemum, flowering white cabbage, poinsettia, and roses. GPA has developed resistance to many pesticides. Certain compounds disclosed in this document were tested against GPA using procedures described as follows. Cabbage seedlings grown in 3-inch pots, with 2-3 small (3-5 cm) true leaves, were used as test substrate. The seedlings were infested with 20-50 GPA (wingless adult and nymph stages) one day prior to chemical application. Four pots with individual seedlings were used for each treatment. Test compounds (2 mg) were dissolved in 2 mL of acetone/methanol (1:1) solvent, forming stock solutions of 1000 ppm test compound. The stock solutions were diluted 5× with 0.025% Tween® 20 (Sigma-Aldrich, Inc., St. Louis, Mo.) in H2O to obtain the solution at 200 ppm test compound. A hand-held aspirator-type sprayer was used for spraying a solution to both sides of […] leaves until runoff. Reference plants (solvent check) were sprayed with the diluent only containing 20% by volume of acetone/methanol (1:1) solvent. Treated plants were held in a holding room for three days at approximately 25° C. and ambient relative humidity (RH) prior to grading. Evaluation was conducted by counting the number of live aphids per plant under a microscope. Percent Control was measured by using Abbott's correction formula (W. S. Abbott, “A Method of Computing the Effectiveness of an Insecticide” J. Econ. Entomol. 18 (1925), pp. 265-267) as follows: Corrected % Control=100*(X−Y)/X • where • X=No. of live aphids on solvent check plants and • Y=No. of live aphids on treated plants The results provided in Table 6 below are based on the qualitative ratings set forth in Table 5.

SMILES | pest or weed control at 200 ppm [%] | GPA Control @ 200 ppm
CC(c1ccc(C(F)(F)F)[n+]([O-])c1)/S(C)=N\C#N (stereo not shown) [(5)] | 80 to 100 | –
CS(=O)(Cc1ccc(C(F)(F)F)[n+]([O-])c1)=NC#N (stereo not shown) [(9), [methyl(oxido){[1-oxido-6-(trifluoromethyl)pyridin-3-yl]methyl}-λ^6-sulfanylidene]cyanamide] | 80 to 100 | –
CC(C)(c1ccc(C(F)(F)F)[n+]([O-])c1)S(C)(=O)=NC#N (stereo not shown) [(10)] | 80 to 100 | –
CC(c1ccc(Cl)[n+]([O-])c1)S(C)(=O)=N[N+](=O)[O-] (stereo not shown) [(18)] | 0 to 80 | –
CC(c1ccc(Cl)[n+]([O-])c1)S(C)(=O)=NC#N (stereo not shown) [(19)] | 80 to 100 | –
CS(=O)(Cc1ccc(Cl)[n+]([O-])c1)=N[N+](=O)[O-] (stereo not shown) [(20)] | – | D
CC(c1ccc(C(F)(F)F)[n+]([O-])c1)S(C)(=O)=N[N+](=O)[O-] (stereo not shown) [(21)] | 80 to 100 | –
CS(=O)(Cc1ccc(C(F)(F)F)[n+]([O-])c1)=NC(N)=O (stereo not shown) [(22)] | – | D
CC(c1ccc(Cl)[n+]([O-])c1)S(C)(=O)=NC(N)=O (stereo not shown) [(23)] | – | D
CC(c1ccc(C(F)(F)F)[n+]([O-])c1)S(C)(=O)=NC#N (stereo not drawn) [Compound (6), N-Cyano-S-[1-(6-trifluoromethyl-3-pyridinyl)ethyl]-S-methylsulfoximine N-oxide] | 80 to 100 | –
